Data as given in patent EP4132503B1, “PROBENECID FOR USE IN THE TREATMENT OF SARS-CO-V2 INFECTIONS” (priority 2020, dated 2021).
Read-outs that look alike come from different tables or passages of the source.

Assays:
SARS-CoV-2 [1] = details: for patients converted to negative SARS-CoV-2 test (of the 10 patients enrolled): 500 mg twice daily
[2] = tested on: SARS-CoV-2 (Isolate USA-WA1/2020); assay: Prophylactic and therapeutic treatment of SARS-CoV-2 infected hamsters; lung viral titer (TCID50 and plaque assay)
SARS-CoV-2 [3] = type: cell-based; details: post-treatment, added after 1 hour infection, compared to DMSO treated infected control, Figure 3
SARS-CoV-2 [4] = type: cell-based
[5] = cited from earlier work
[6] = tested on: SARS-CoV-2 (Isolate USA-WA1/2020); type: cell-based; details: 24 h pre-treatment, compared to DMSO treated infected control
[7] = prophylactic and therapeutic conditions, both cell types (NHBE and Vero)

CCCN(CCC)S(=O)(=O)c1ccc(C(=O)O)cc1 [probenecid, 4-[(dipropylamino)sulfony1] benzoic acid]
patients converted to negative SARS-CoV-2 test (of the 10 patients enrolled) (SARS-CoV-2 [1]; Day 4 of treatment): 2
patients converted to negative SARS-CoV-2 test (of the 10 patients enrolled) (SARS-CoV-2 [1]; Day 9 of treatment): four
patients converted to negative SARS-CoV-2 test (of the 10 patients enrolled) (SARS-CoV-2 [1]; Day 14 of treatment): nine
viral shedding of SARS-CoV-2 (SARS-CoV-2 [1]; compared to literature pooled median of 17.2 days, all but one patient (Patient 003)): < 17.2 days
patient symptoms (SARS-CoV-2 [1]; no scored grading system used, shortness of breath and loss of taste or smell persisted): showed improvement
coagulation and inflammatory markers (SARS-CoV-2 [1]; with the exception of one patient (Patient 001)): mostly maintained within normal ranges
effectiveness of the two doses compared ([2]; 2 mg and 200 mg treatment, single dose): similarly effective
lung virus titers ([2]; day 3 post-infection, all probenecid-treated hamsters (2 or 200 mg/kg, prophylactic or therapeutic, single dose), PBS-treated 1E9+): 1E5
lung virus ([2]; day 7 post infection): no detectable lung virus
prophylactic compared with therapeutic treatment ([2]; hamster, in vivo): worked similarly
decrease of lung virus titers ([2]; hamsters, compared to PBS-treated): several logs
reduction in plaque formation (SARS-CoV-2 [3]; 0.0001µM): 40%
reduction in plaque formation (SARS-CoV-2 [3]; 5µM): ~ 90%
IC50s compared with remdesivir (SARS-CoV-2 [4]; [7]): lower
IC90s compared with remdesivir (SARS-CoV-2 [4]; [7]): lower
virus plaque formation (SARS-CoV-2 [4]; treated prophylactically or therapeutically, compared to controls): dose-dependent decrease
lipid solubility [5]: highly lipid soluble
reduction in plaque formation ([6]; 0.0001µM, another experiment, 6 well plate, Figure 2): 50%
reduction in plaque formation ([6]; 0.1µM, Vero E6, MOI 0.01, 4 days, Figure 1): 72%
reduction in plaque formation ([6]; 5µM, Vero E6, MOI 0.01, 4 days, Figure 1): ~ 89%
reduction in plaque formation ([6]; 5µM, another experiment, 6 well plate, Figure 2): ~ 93%
